Measured values published in paper PMC8401257, “Serjanic Acid Glycosides from Chenopodium hybridum L. with Good Cytotoxicity and Selectivity Profile against Several Panels of Human Cancer Cell Lines” (Molecules, 2021).

Legend:
HTB-140 = experiment: LDH cytotoxicity assay, melanoma HTB-140; format: cell-based; details: Homo sapiens
Source text: (§1) Human cancer and the corresponding normal cell lines, used in the study, were grouped as follows: skin panel (melanoma HTB140, derived from metastatic site: lymph node, ATCC Hs 294T; malignant melanoma A375, ATCC CRL-1619; stage I primary melanoma WM793, RRID:CVCL 8787; skin keratinocytes HaCaT), prostate panel (prostate carcinoma Du145, derived from metastatic site: brain, ATCC HTB-81; grade IV prostate carcinoma, PC3, derived from metastatic site: bone, ATCC CRL-1435; prostate epithelial cells PNT2, ECACC 95012613), gastrointestinal panel (colorectal adenocarcinomas Caco2, ATCC HTB-37, and HT29, ATCC HTB-38; hepatocellular carcinoma HepG2, ATCC HB-8065), thyroid panel (follicular thyroid carcinoma FTC133, ECACC 94060901; undifferentiated thyroid carcinoma 8505C, ECACC 94090184; Nthy-ori 3–1, human thyroid follicular epithelial cells, ECACC 90011609), lung carcinoma A549 cells (ATCC CRM-CCL-185). Cells were grown at standard conditions (37 °C, 5% CO2, relative humidity) and culture media (DMEM/F12 for PNT2, WM 793, HT29, PC3, FTC133, 8505C, A549; DMEM Low Glucose for DU145; DMEM High Glucose for HTB140, A375, HaCaT; MEM with NEAA for Caco2), supplemented with 10% fetal bovine serum (FBS) and 1% antibiotics solution (10 000 U penicillin and 10 mg streptomycin/mL). All culture media and supplements were from Sigma-Aldrich.
(§2) Cell viability was measured with the lactate dehydrogenase (LDH) assay (Clontech, Mountain View, CA, USA), as described previously. Before the experiment, cells were seeded onto 96-well plates for 24 h (1.5 × 10^4 cells/well). The culture medium was replaced with a fresh medium containing different concentrations of the tested extracts (10–100 μg/mL, in DMSO) and incubated for 24 and 48 h. The absorbance was measured at 490 nm using a Biotek Synergy microplate reader. Cell viability was expressed as percent of the dead cells and IC50 values were also calculated. Each experiment was done in triplicate.
(§3) Data were analyzed using Statistica v. 13.3 (Stat Soft, TIBCO, Palo Alto, CA, USA). Each variable was expressed as mean (± SD). The statistical significance in cytotoxic assay was determined using Mann–Whitney U test. The value p < 0.05 was considered to indicate significant differences. NMR Spectra were analyzed using ACD/Labs ^1D NMR Processor 12.0 (Academic Edition) and JEOL DELTA v 5.3.1 (Jeol Resonance Inc., JEOL, Tokyo, Japan). In MS analysis MassLynx V 4.1 (Waters, Milford, MA, USA) and Compass DataAnalysis (Bruker, Billerica, MA, USA) software were used. IC50 values in cytotoxic assay were calculated using Origin Pro 2020b (OriginLab Corporation, Northampton, MA, USA).

A375 = experiment: LDH cytotoxicity assay, malignant melanoma A375; format: cell-based; details: Homo sapiens
Source text: as §1, §2, §3

WM793 = experiment: LDH cytotoxicity assay, primary melanoma WM793; format: cell-based; details: Homo sapiens
Source text: as §1, §2, §3

HaCaT = experiment: LDH cytotoxicity assay, skin keratinocytes HaCaT; format: cell-based; details: Homo sapiens
Source text: as §1, §2, §3

DU-145 = experiment: LDH cytotoxicity assay, prostate carcinoma DU-145; format: cell-based; details: Homo sapiens
Source text: as §1, §2, §3

PC3 = experiment: LDH cytotoxicity assay, prostate carcinoma PC3; format: cell-based; details: Homo sapiens
Source text: as §1, §2, §3

PNT2 = experiment: LDH cytotoxicity assay, normal prostate epithelial PNT2; format: cell-based; details: Homo sapiens
Source text: as §1, §2, §3

FTC133 = experiment: LDH cytotoxicity assay, follicular thyroid carcinoma FTC133; format: cell-based; details: Homo sapiens
Source text: as §1, §2, §3

8505C = experiment: LDH cytotoxicity assay, undifferentiated thyroid carcinoma 8505C; format: cell-based; details: Homo sapiens
Source text: as §1, §2, §3

Nthy-ori 3–1 = experiment: LDH cytotoxicity assay, thyroid follicular epithelial cells Nthy-ori 3–1; format: cell-based; details: Homo sapiens
Source text: as §1, §2, §3

Caco-2 = experiment: LDH cytotoxicity assay, colorectal adenocarcinoma Caco-2; format: cell-based; details: Homo sapiens
Source text: as §1, §2, §3

HT29 = experiment: LDH cytotoxicity assay, colorectal adenocarcinoma HT29; format: cell-based; details: Homo sapiens
Source text: as §1, §2, §3

HepG2 = experiment: LDH cytotoxicity assay, hepatocellular carcinoma HepG2; format: cell-based; details: Homo sapiens
Source text: as §1, §2, §3

A549 = experiment: LDH cytotoxicity assay, lung carcinoma A549; format: cell-based; details: Homo sapiens
Source text: as §1, §2, §3

HeLa cells = tested on: HeLa cells; set-up: method as in doi:10.1007/s11101-009-9121-0; details: cited from earlier work

Compound | IC50 (HTB-140; HTB-140, 24 h) [µg/mL] | IC50 (HTB-140; HTB-140, 48 h) [µg/mL] | IC50 (A375; A-375, A375, 24 h) [µg/mL] | IC50 (A375; A-375, A375, 48 h) [µg/mL] | IC50 (WM793; WM793, 24 h) [µg/mL] | IC50 (WM793; WM793, 48 h) [µg/mL] | IC50 (HaCaT; 24 h) [µg/mL] | IC50 (HaCaT; 48 h) [µg/mL] | IC50 (DU-145; DU-145, 24 h) [µg/mL] | IC50 (DU-145; DU-145, 48 h) [µg/mL] | IC50 (PC3; PC-3, PC3, 24 h) [µg/mL] | IC50 (PC3; PC-3, PC3, 48 h) [µg/mL] | IC50 (PNT2; PNT2, 24 h) [µg/mL] | IC50 (PNT2; PNT2, 48 h) [µg/mL] | IC50 (FTC133; FTC-133, FTC133, 24 h) [µg/mL] | IC50 (8505C; 24 h) [µg/mL] | IC50 (Caco-2; Caco-2, 24 h) [µg/mL] | IC50 (HT29; HT-29, HT29, 24 h) [µg/mL] | IC50 (HepG2; HepG2, 24 h) [µg/mL] | IC50 (A549; A549, 24 h) [µg/mL] | further results
COC(=O)[C@@]1(C)CC[C@]2(C(=O)O[C@@H]3O[C@H](CO)[C@@H](O)[C@H](O)[C@H]3O)CC[C@]3(C)C(=CC[C@@H]4[C@@]5(C)CC[C@H](O[C@@H]6OC[C@H](O)[C@H](O)[C@H]6O[C@@H]6O[C@@H](C)[C@H](O)[C@@H](O)[C@H]6O)C(C)(C)[C@@H]5CC[C@]43C)[C@@H]2C1 [Compound 1, 3-O-α-L-Rhamnopyranosyl-(1→2)-α-L-Arabinopyranosyl Serjanic Acid 28-O-β-D-Glucopyranosyl Ester] | 11.7 | 7.95 | 32.4 | 20.3 | 17.2 | 9.92 | > 100 | > 100 | 16.6 | 7.25 | 34.3 | 19.5 | > 100 | > 100 | > 100 | > 100 | 28.7 | 57.9 | > 100 | 61.3 | IC50 (FTC133; FTC-133, FTC133, 48 h): 76.3 µg/mL; IC50 (8505C; 48 h): > 100 µg/mL; IC50 (Nthy-ori 3–1; Nthy-ori 3–1, 24 h): > 100 µg/mL; IC50 (Nthy-ori 3–1; Nthy-ori 3–1, 48 h): > 100 µg/mL; IC50 (Caco-2; Caco-2, 48 h): 15.3 µg/mL; IC50 (HT29; HT-29, HT29, 48 h): 22.8 µg/mL; IC50 (HepG2; HepG2, 48 h): 76.6 µg/mL; IC50 (A549; A549, 48 h): 34.7 µg/mL
COc1cccc2c1C(=O)c1c(O)c3c(c(O)c1C2=O)C[C@@](O)(C(=O)CO)C[C@@H]3O[C@H]1C[C@H](N)[C@H](O)[C@H](C)O1 [Doxorubicin, reference compound] | 5.71 |  | 0.59 |  | > 40 |  | 4.68 |  | 3.18 |  | > 50 |  | 1.38 |  | 4.02 | > 40 | 3.44 | 1.53 | 1.03 | 1.73 | 
COC(=O)[C@@]1(C)CC[C@]2(C(=O)O[C@@H]3O[C@H](CO)[C@@H](O)[C@H](O)[C@H]3O)CC[C@]3(C)C(=CC[C@@H]4[C@@]5(C)CC[C@H](O[C@@H]6OC[C@H](O)[C@H](O)[C@H]6O)C(C)(C)[C@@H]5CC[C@]43C)[C@@H]2C1 [Compound 2, 3-O-α-L-Arabinopyranosyl Serjanic Acid 28-O-β-D-Glucopyranosyl Ester] | 39.2 | 25.1 | 39.4 | 29.3 | 32.2 | 16.8 | > 100 | > 100 | 33.1 | 23.5 | 23.8 | 18.3 | > 100 | > 100 | > 100 | > 100 | 20.7 | 10.7 | 54.2 | 41.7 | IC50 (FTC133; FTC-133, FTC133, 48 h): > 100 µg/mL; IC50 (8505C; 48 h): > 100 µg/mL; IC50 (Nthy-ori 3–1; Nthy-ori 3–1, 24 h): > 100 µg/mL; IC50 (Nthy-ori 3–1; Nthy-ori 3–1, 48 h): > 100 µg/mL; IC50 (Caco-2; Caco-2, 48 h): 12.6 µg/mL; IC50 (HT29; HT-29, HT29, 48 h): 6.48 µg/mL; IC50 (HepG2; HepG2, 48 h): 39 µg/mL; IC50 (A549; A549, 48 h): 28.3 µg/mL; cytotoxicity towards HeLa cells (HeLa cells): inactive
